# In ChEMBL document CHEMBL1201862, “PubChem BioAssay data set” (2004):
# Calls of active or inactive are those of the source.
# Legend:
# [1] = viability loss in THP-1 monocytes – THP-1 cells, cytotoxicity control for Vif-APOBEC3G degradation inhibitor project, dose response (AID 1117359); format: functional; conditions: THP-1
# [2] = viability of uninfected HEp-2 cells – cell-based, HTS, cytotoxicity control for RSV inhibitor project, dose response (AID 2410); format: functional; conditions: human respiratory syncytial virus
# [3] = target: T1, Endoribonuclease toxin MazF (Escherichia coli K-12, UniProt P0AE70); assay: activation of MazEF endoribonuclease cleavage – biochemical, fluorescence, single-stranded RNA substrate, uHTS hits, dose response (AID 588481); format: functional
# T1 sequence (P0AE70 whole entry): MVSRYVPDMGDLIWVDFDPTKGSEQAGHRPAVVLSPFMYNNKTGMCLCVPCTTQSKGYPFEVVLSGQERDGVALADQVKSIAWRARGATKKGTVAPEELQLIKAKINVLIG
# [4] = target: T1, Endoribonuclease toxin MazF; assay: substrate-only fluorescence increase artefacts – biochemical, single-stranded RNase substrate, counter-screen for MazEF activator project, dose response (AID 588502); format: functional
# [5] = HIV-1 AD8 envelope cell-cell fusion blockers – cherry-pick, dose response (AID 652062); format: functional, cell-based;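 also: luciferase signal from cell-cell fusion driven by HIV-1 clade B AD8 Env; potency is for inhibitors of fusion seen as a drop in luminescence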
# [6] = blockers of HIV-1 ZM109 envelope-driven cell-cell fusion – HeLa effector, CEM target cells, luciferase, cherry-pick, dose response (AID 652058); format: functional, cell-based;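 also: luciferase signal from HIV-1 Env mediated cell-cell fusion of effector and target cells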
# [7] = off-target signal loss in HeLa-CEM21 co-culture – HeLa F-luc CTL cells, cherry-picked, counter-screen for HIV-1 Env fusion inhibitor project, dose response (AID 652040); format: functional, cell-based;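 also: potency for signal decrease marking cytotoxic or nonspecific inhibition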
# [8] = blockers of HIV-1 envelope-mediated cell-cell fusion – cherry-pick, dose response (AID 652057); format: functional, cell-based
# [9] = target: T2, DNA repair protein RAD52 homolog (Homo sapiens, UniProt P43351); format: functional, biochemical
# T2 sequence (P43351 whole entry): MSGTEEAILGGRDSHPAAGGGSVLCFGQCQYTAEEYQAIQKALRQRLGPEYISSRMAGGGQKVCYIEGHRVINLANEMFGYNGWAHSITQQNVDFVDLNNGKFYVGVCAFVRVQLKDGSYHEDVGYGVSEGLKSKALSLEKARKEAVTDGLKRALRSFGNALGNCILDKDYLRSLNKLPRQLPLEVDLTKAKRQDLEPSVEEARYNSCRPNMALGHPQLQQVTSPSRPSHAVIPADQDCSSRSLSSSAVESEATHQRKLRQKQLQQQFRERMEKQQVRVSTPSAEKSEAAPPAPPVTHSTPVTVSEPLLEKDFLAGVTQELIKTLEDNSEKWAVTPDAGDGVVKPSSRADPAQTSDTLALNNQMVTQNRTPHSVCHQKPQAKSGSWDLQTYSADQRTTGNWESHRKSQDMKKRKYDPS
# [10] = target: T3, Zinc finger protein mex-5 (Caenorhabditis elegans, UniProt Q9XUB2); assay: potency of MEX-5 RNA-binding blockers – biochemical, C. elegans, fluorescence polarization, dose response (AID 1960)
# T3 sequence (Q9XUB2 whole entry): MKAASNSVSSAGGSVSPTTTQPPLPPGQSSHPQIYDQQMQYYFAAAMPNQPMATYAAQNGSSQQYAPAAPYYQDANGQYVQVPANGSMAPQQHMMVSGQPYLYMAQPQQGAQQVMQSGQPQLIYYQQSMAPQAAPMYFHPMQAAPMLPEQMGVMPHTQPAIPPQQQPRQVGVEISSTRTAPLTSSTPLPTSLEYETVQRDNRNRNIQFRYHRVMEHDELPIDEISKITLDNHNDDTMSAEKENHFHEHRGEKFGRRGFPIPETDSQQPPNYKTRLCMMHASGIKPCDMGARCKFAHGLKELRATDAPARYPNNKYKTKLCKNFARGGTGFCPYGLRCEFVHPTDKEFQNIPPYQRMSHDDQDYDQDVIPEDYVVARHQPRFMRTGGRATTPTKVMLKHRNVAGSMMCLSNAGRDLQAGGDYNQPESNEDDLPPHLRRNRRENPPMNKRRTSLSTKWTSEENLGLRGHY
# [11] = target: T4, DNA repair and recombination protein RAD54-like (Homo sapiens, UniProt Q92698); assay: RAD54 Holliday junction migration blockers – biochemical, fluorescence, cherry-picked samples, dose series, confirmation (AID 651657); format: functional
# T4 sequence (Q92698 whole entry): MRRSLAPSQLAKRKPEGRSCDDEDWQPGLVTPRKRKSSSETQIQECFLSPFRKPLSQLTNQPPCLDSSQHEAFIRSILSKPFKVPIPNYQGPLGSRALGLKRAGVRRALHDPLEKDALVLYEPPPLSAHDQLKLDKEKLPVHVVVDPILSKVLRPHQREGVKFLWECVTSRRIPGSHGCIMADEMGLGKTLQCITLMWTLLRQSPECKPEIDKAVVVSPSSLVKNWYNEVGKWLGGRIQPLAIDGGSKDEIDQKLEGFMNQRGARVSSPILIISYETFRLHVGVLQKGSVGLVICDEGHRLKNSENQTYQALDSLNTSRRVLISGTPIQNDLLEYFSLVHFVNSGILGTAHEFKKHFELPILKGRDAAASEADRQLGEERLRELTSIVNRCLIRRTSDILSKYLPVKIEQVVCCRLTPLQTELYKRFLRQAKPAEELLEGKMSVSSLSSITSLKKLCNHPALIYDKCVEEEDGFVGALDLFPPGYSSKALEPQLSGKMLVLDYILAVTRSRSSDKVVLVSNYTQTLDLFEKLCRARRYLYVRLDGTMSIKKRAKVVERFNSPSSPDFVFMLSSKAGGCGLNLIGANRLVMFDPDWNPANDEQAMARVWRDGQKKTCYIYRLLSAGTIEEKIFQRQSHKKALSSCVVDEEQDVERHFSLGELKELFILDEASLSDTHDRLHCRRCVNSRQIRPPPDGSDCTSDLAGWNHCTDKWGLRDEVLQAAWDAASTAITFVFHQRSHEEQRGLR
# [12] = target: T5, RNA-binding protein pos-1 (Caenorhabditis elegans, UniProt G5EF15); assay: disruptors of C. elegans POS-1 RNA interaction – biochemical, fluorescence polarization, dose response (AID 1964);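 also: purified POS-1 fused to maltose binding protein made in E. coli; potency of compounds blocking POS-1 binding to fluorescent RNA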
# T5 sequence (G5EF15 whole entry): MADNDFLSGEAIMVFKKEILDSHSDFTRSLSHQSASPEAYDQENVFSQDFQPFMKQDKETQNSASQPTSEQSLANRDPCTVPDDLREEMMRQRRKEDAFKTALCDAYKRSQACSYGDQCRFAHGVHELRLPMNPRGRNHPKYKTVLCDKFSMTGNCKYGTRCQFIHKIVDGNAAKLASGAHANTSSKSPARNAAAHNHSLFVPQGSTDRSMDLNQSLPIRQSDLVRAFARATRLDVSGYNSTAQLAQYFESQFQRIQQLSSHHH
# [13] = toxicity toward HepG2 liver cells – cell-based, plate reader, cherry-pick, antagonist series, cytotoxicity control, dose response (AID 743416); format: functional
# [14] = general cell-killing toxicity readout – plate reader, dry powder samples, cytotoxicity control for PAX8 inhibitor project, dose response (AID 743021); format: functional, cell-based
# [15] = A549 cell cytotoxicity, dose response, cytotoxicity control, plate reader, cherry-pick, antagonist series (AID 743412); format: functional, cell-based
# Paired box protein Pax-8 = Paired box protein Pax-8 (Homo sapiens, UniProt Q06710); assay: PAX8 transcriptional activity inhibition in RMG-I – RMG-I cells, luciferase, cherry-pick, dose response (AID 687027); format: functional, cell-based;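 also: luciferase reporter driven by Pax8 target thyroperoxidase promoter measured by SteadyGlo luminescence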
# Sequence of Paired box protein Pax-8 (Q06710 whole entry): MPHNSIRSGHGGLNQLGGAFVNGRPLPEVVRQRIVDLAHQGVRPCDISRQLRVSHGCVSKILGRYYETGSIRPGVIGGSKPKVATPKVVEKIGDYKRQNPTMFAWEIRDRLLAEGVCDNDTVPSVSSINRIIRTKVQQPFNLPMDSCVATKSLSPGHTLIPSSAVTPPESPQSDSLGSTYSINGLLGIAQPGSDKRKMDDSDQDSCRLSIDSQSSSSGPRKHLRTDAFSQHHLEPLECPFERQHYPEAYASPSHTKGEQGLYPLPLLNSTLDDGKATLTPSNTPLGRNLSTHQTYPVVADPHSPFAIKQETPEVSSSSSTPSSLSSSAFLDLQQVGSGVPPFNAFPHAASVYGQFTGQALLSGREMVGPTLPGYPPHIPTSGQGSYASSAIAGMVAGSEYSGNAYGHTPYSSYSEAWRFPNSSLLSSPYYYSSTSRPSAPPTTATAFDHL
# [16] = reduced cellular PGC1a acetyl-lysine signal – cell-based, cherry-picked samples, dose response (AID 720514); format: functional;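 also: potency may reflect raised or lowered acetylation signal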
# [17] = blockade of melanocortin 4 receptor signaling – cell-based, plate reader, cherry pick, counter-screen for LGR2 antagonist project, dose response (AID 743444); format: functional;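 also: transfected HEK 293 cells stimulated with alpha-MSH peptide; potency of inhibitors of the alpha-MSH evoked signal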
# [18] = blockers of bursicon-stimulated LGR2 cAMP reporter – cell-based, HEK293, CRE-luciferase reporter, cherry pick, set 2, dose response (AID 743343); format: functional;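 also: transfected cells were stimulated with diluted bursicon conditioned medium after compound addition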
# [19] = viability loss in HEK293 cells – cell-based, plate reader, cherry-picked samples, cytotoxicity control, dose response (AID 743446); format: functional
compound,measurement,setting,value
COc1ccc(CCNCc2ccc(OCc3ccccc3)cc2)cc1,CC50,[1],21.9 µM (active)
O=c1oc(/C=C/c2ccccc2)nc2sc3c(c12)CCC3,IC50,cells,39.6 µM (active)
same,CC50,[2],28.4 µM (active)
same,EC50,[3],> 99 µM (inactive)
same,EC50,[4],> 99 µM (inactive)
O=C(NCc1ccco1)c1ccc(Cn2c(=O)c3sccc3n(Cc3cccc(F)c3)c2=O)cc1,IC50,cells,5.66 µM (active)
same,CC50,[2],> 12.5 µM (active)
same,AC50,[5],2.36 µM (active)
same,AC50,[6],0.58 µM (active)
same,AC50,[7],0.348 µM (active)
same,AC50,[8],< 0.26 µM (active)
CC(C)OCC(O)CN1CCN(CCN2C(=O)c3cccc4cccc(c34)C2=O)CC1 (centres undefined),AC50,[9],3.93 µM (active)
same,EC50,[10],> 300 µM (not active)
same,AC50,[11],8.86 µM (active)
same,EC50,[12],> 300 µM (not active)
O=C(c1ccco1)N1CCN(C(=O)C2CCCc3c2[nH]c2ccc(Cl)cc32)CC1 (centres undefined),IC50,cells,16 µM (active)
same,CC50,[2],16.2 µM (active)
COc1cc(C(=O)NC2CCN(C)CC2)ccc1Nc1ncc2c(n1)N(CCc1ccccc1)CCC(=O)N2C,AC50,[9],8.71 µM (active)
Oc1nc2ccccc2n1C1CCN(C(c2cc3ccccc3o2)c2nnnn2Cc2ccccc2)CC1 (centres undefined),AC50,[13],24.8 µM (active)
same,AC50,[14],19 µM (active)
same,AC50,[15],9.97 µM (active)
same,AC50,Paired box protein Pax-8,6.31 µM (active)
same,AC50,[16],9.76 µM (active)
same,AC50,[17],9.44 µM (active)
same,AC50,[18],13.5 µM (active)
same,AC50,[19],14.7 µM (active)
O=C(N[C@@H]1CC[C@@H](CCNS(=O)(=O)c2ccccc2Cl)O[C@@H]1CO)c1ccc(F)cc1,AC50,[16],36.1 µM (active)
COc1ccc(-c2cc(C(=O)N/N=C/c3ccc4c(c3)OCO4)c3ccccc3n2)c(OC)c1,IC50,cells,27.9 µM (active)
same,CC50,[2],44.4 µM (active)
